Data reported in patent publication US20020137929A1, “1 - (3-heterocyclylphenyl) isothiourea, -isourea, -guanidine and -amidine herbicidal agents” (Intellectual Property Department, BASF Aktiengesellschaft, priority 1998, published 2002).

Tests used:
ABUTH (Velvetleaf) = test: Postemergence herbicidal evaluation; assay type: in vivo, Abutilon theophrasti; details: postemergence
Outline: (§1)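 Rate range approx. 0.0156–0.500 kg/ha. Foliar application at 40 psi to ~2-week seedlings; surfactant 0.5% TWEEN 20 in 50/50 acetone/water. Evaluation 4–5 wk post-treatment by 0–9 visual injury score, means of replicate tests.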

AMBEL (Ragweed, Common) = test: Postemergence herbicidal evaluation; assay type: in vivo, Ambrosia artemisifolia; details: postemergence
Outline: as §1

[1] = system: IPOHE (Morningglory, Ivyleaf); test: Postemergence herbicidal evaluation; assay type: in vivo, Ipomoea hederacea; details: postemergence
Outline: as §1

ECHCG (Barnyardgrass) [2] = test: Postemergence herbicidal evaluation; assay type: in vivo, Echinochloa crus-galli; details: postemergence
Outline: as §1

SETVI (Foxtail, Green) = test: Postemergence herbicidal evaluation; assay type: in vivo, Setaria viridis; details: postemergence
Outline: as §1

[3] = system: GLXMAW (Soybean, Williams); test: Postemergence herbicidal evaluation; assay type: in vivo, Glycine max, (L.) Merr. cv Williams; details: postemergence
Outline: as §1

[4] = system: TRZAWR (Wheat, Winter, cv Riband); test: Postemergence herbicidal evaluation; assay type: in vivo, Triticum aestivum; details: postemergence
Outline: as §1

CASOB (Sicklepod) = test: Preemergence herbicidal evaluation; assay type: in vivo, Cassia obtusifolia; details: rated 4-5 weeks after treatment, rating scale 0-9
Outline: (§2)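 In this greenhouse assay, monocot and dicot seeds are planted in soil and treated prior to emergence with an aqueous acetone spray (about 0.0156-0.500 kg/ha). Plants are assessed visually against control on a 0-9 scale after 4-5 weeks.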

[5] = system: CHEAL (Lambsquarters, Common); test: Preemergence herbicidal evaluation; assay type: in vivo, Chenopodium album; details: rated 4-5 weeks after treatment, rating scale 0-9
Outline: as §2

GALAP (Galium) = test: Preemergence herbicidal evaluation; assay type: in vivo, Galium aparine; details: rated 4-5 weeks after treatment, rating scale 0-9
Outline: as §2

[6] = system: IPOHE (Morningglory, Ivyleaf); test: Preemergence herbicidal evaluation; assay type: in vivo, Ipomoea hederacea; details: rated 4-5 weeks after treatment, rating scale 0-9
Outline: as §2

ECHCG (Barnyardgrass) [7] = test: Preemergence herbicidal evaluation; assay type: in vivo, Echinochloa crus-galli; details: rated 4-5 weeks after treatment, rating scale 0-9
Outline: as §2

ZEAMX (Corn, Field) = test: Preemergence herbicidal evaluation; assay type: in vivo, Zea mays; details: rated 4-5 weeks after treatment, rating scale 0-9
Outline: as §2

Cn1c(C(F)(F)F)cc(=O)n(-c2cc(N=C3SCC(=O)N3C3CC3)c(Cl)cc2F)c1=O [Compound 152, 3-{4-Chloro-5-[(3-cyclopropyl-4-oxo-2-thiazolidinylidene)amino]-2-fluorophenyl}-1-methyl-6-(trifluoromethyl)-2,4(1H,3H)-pyrimidinedione]
2.0: herbicidal rating AMBEL (AMBEL (Ragweed, Common); rate 0.0156 kg/ha) | herbicidal rating ECHCG (ECHCG (Barnyardgrass) [2]; rate 0.0313 kg/ha) | herbicidal rating ECHCG (ECHCG (Barnyardgrass) [2]; rate 0.0625 kg/ha) | Preemergence herbicidal rating CHEAL ([5]; rate 0.0313 kg/ha) | Preemergence herbicidal rating ZEAMX (ZEAMX (Corn, Field); rate 0.2500 kg/ha)
1.0: herbicidal rating ECHCG (ECHCG (Barnyardgrass) [2]; rate 0.0156 kg/ha) | Preemergence herbicidal rating CASOB (CASOB (Sicklepod); rate 0.0625 kg/ha) | Preemergence herbicidal rating GALAP (GALAP (Galium); rate 0.1250 kg/ha) | Preemergence herbicidal rating IPOHE ([6]; rate 0.0625 kg/ha) | Preemergence herbicidal rating ECHCG (ECHCG (Barnyardgrass) [7]; rate 0.1250 kg/ha) | Preemergence herbicidal rating ECHCG (ECHCG (Barnyardgrass) [7]; rate 0.2500 kg/ha) | Preemergence herbicidal rating ZEAMX (ZEAMX (Corn, Field); rate 0.0625 kg/ha) | Preemergence herbicidal rating ZEAMX (ZEAMX (Corn, Field); rate 0.1250 kg/ha)
3.0: herbicidal rating SETVI (SETVI (Foxtail, Green); rate 0.0313 kg/ha) | herbicidal rating SETVI (SETVI (Foxtail, Green); rate 0.0625 kg/ha) | herbicidal rating TRZAWR ([4]; rate 0.0156 kg/ha) | Preemergence herbicidal rating CASOB (CASOB (Sicklepod); rate 0.2500 kg/ha)
6.0: herbicidal rating ABUTH (ABUTH (Velvetleaf); rate 0.0156 kg/ha) | herbicidal rating GLXMAW ([3]; rate 0.0625 kg/ha) | Preemergence herbicidal rating GALAP (GALAP (Galium); rate 0.2500 kg/ha)
0.0: herbicidal rating SETVI (SETVI (Foxtail, Green); rate 0.0156 kg/ha) | Preemergence herbicidal rating CASOB (CASOB (Sicklepod); rate 0.0313 kg/ha) | Preemergence herbicidal rating CASOB (CASOB (Sicklepod); rate 0.1250 kg/ha) | Preemergence herbicidal rating GALAP (GALAP (Galium); rate 0.0313 kg/ha) | Preemergence herbicidal rating GALAP (GALAP (Galium); rate 0.0625 kg/ha) | Preemergence herbicidal rating IPOHE ([6]; rate 0.0313 kg/ha) | Preemergence herbicidal rating ECHCG (ECHCG (Barnyardgrass) [7]; rate 0.0313 kg/ha) | Preemergence herbicidal rating ECHCG (ECHCG (Barnyardgrass) [7]; rate 0.0625 kg/ha) | Preemergence herbicidal rating ZEAMX (ZEAMX (Corn, Field); rate 0.0313 kg/ha)
4.0: herbicidal rating ABUTH (ABUTH (Velvetleaf); rate 0.0313 kg/ha) | herbicidal rating AMBEL (AMBEL (Ragweed, Common); rate 0.0313 kg/ha) | herbicidal rating GLXMAW ([3]; rate 0.0156 kg/ha) | herbicidal rating TRZAWR ([4]; rate 0.0625 kg/ha) | Preemergence herbicidal rating IPOHE ([6]; rate 0.1250 kg/ha)
9.0: herbicidal rating ABUTH (ABUTH (Velvetleaf); rate 0.0625 kg/ha) | herbicidal rating AMBEL (AMBEL (Ragweed, Common); rate 0.0625 kg/ha) | herbicidal rating IPOHE ([1]; rate 0.0313 kg/ha) | herbicidal rating IPOHE ([1]; rate 0.0625 kg/ha) | Preemergence herbicidal rating CHEAL ([5]; rate 0.0625 kg/ha) | Preemergence herbicidal rating CHEAL ([5]; rate 0.1250 kg/ha) | Preemergence herbicidal rating CHEAL ([5]; rate 0.2500 kg/ha)
3.5: herbicidal rating TRZAWR ([4]; rate 0.0313 kg/ha)
4.5: herbicidal rating GLXMAW ([3]; rate 0.0313 kg/ha)
7.0: herbicidal rating IPOHE ([1]; rate 0.0156 kg/ha) | Preemergence herbicidal rating IPOHE ([6]; rate 0.2500 kg/ha)

COCCN1C(=O)CSC1=Nc1cc(-n2c(=O)cc(C(F)(F)F)n(C)c2=O)c(F)cc1Cl [Compound 155, 3-{4-Chloro-2-fluoro-5-{[3-(2-methoxyethyl)-4-oxo-2-thiazolidinylidene]amino}phenyl}-1-methyl-6-(trifluoromethyl)-2,4(1H,3H)-pyrimidinedione]
5.0: herbicidal rating GLXMAW ([3]; rate 0.0313 kg/ha) | herbicidal rating GLXMAW ([3]; rate 0.0625 kg/ha)
4.0: herbicidal rating IPOHE ([1]; rate 0.0313 kg/ha) | herbicidal rating GLXMAW ([3]; rate 0.0156 kg/ha) | Preemergence herbicidal rating GALAP (GALAP (Galium); rate 0.0625 kg/ha) | Preemergence herbicidal rating GALAP (GALAP (Galium); rate 0.1250 kg/ha) | Preemergence herbicidal rating GALAP (GALAP (Galium); rate 0.2500 kg/ha)
0.0: herbicidal rating AMBEL (AMBEL (Ragweed, Common); rate 0.0156 kg/ha) | herbicidal rating AMBEL (AMBEL (Ragweed, Common); rate 0.0313 kg/ha) | herbicidal rating AMBEL (AMBEL (Ragweed, Common); rate 0.0625 kg/ha) | herbicidal rating ECHCG (ECHCG (Barnyardgrass) [2]; rate 0.0156 kg/ha) | herbicidal rating ECHCG (ECHCG (Barnyardgrass) [2]; rate 0.0313 kg/ha) | herbicidal rating ECHCG (ECHCG (Barnyardgrass) [2]; rate 0.0625 kg/ha) | herbicidal rating SETVI (SETVI (Foxtail, Green); rate 0.0156 kg/ha) | herbicidal rating SETVI (SETVI (Foxtail, Green); rate 0.0313 kg/ha) | herbicidal rating SETVI (SETVI (Foxtail, Green); rate 0.0625 kg/ha) | Preemergence herbicidal rating CASOB (CASOB (Sicklepod); rate 0.0625 kg/ha) | Preemergence herbicidal rating CASOB (CASOB (Sicklepod); rate 0.1250 kg/ha) | Preemergence herbicidal rating CASOB (CASOB (Sicklepod); rate 0.2500 kg/ha) | Preemergence herbicidal rating CHEAL ([5]; rate 0.0625 kg/ha) | Preemergence herbicidal rating IPOHE ([6]; rate 0.0625 kg/ha) | Preemergence herbicidal rating IPOHE ([6]; rate 0.1250 kg/ha) | Preemergence herbicidal rating ECHCG (ECHCG (Barnyardgrass) [7]; rate 0.0625 kg/ha) | Preemergence herbicidal rating ECHCG (ECHCG (Barnyardgrass) [7]; rate 0.1250 kg/ha) | Preemergence herbicidal rating ECHCG (ECHCG (Barnyardgrass) [7]; rate 0.2500 kg/ha) | Preemergence herbicidal rating ZEAMX (ZEAMX (Corn, Field); rate 0.0625 kg/ha) | Preemergence herbicidal rating ZEAMX (ZEAMX (Corn, Field); rate 0.1250 kg/ha)
2.0: herbicidal rating IPOHE ([1]; rate 0.0156 kg/ha) | herbicidal rating TRZAWR ([4]; rate 0.0313 kg/ha) | Preemergence herbicidal rating IPOHE ([6]; rate 0.2500 kg/ha) | Preemergence herbicidal rating ZEAMX (ZEAMX (Corn, Field); rate 0.2500 kg/ha)
3.0: herbicidal rating ABUTH (ABUTH (Velvetleaf); rate 0.0156 kg/ha) | herbicidal rating TRZAWR ([4]; rate 0.0625 kg/ha)
9.0: herbicidal rating ABUTH (ABUTH (Velvetleaf); rate 0.0313 kg/ha) | herbicidal rating ABUTH (ABUTH (Velvetleaf); rate 0.0625 kg/ha) | herbicidal rating IPOHE ([1]; rate 0.0625 kg/ha) | Preemergence herbicidal rating CHEAL ([5]; rate 0.1250 kg/ha) | Preemergence herbicidal rating CHEAL ([5]; rate 0.2500 kg/ha)
1.0: herbicidal rating TRZAWR ([4]; rate 0.0156 kg/ha)
